Where two headings read alike, the source gives them in different places.
How the values were obtained:
[1] = test system: SREBP2; test: SREBP2 cleavage in HEPG2 cells (Western blot normalized to actin); assay type: cell-based; conditions: Homo sapiens, HepG2 cells, read-out: Average SREBP2 cleavage (% Inhibition, n = 3)
Procedure: Average SREBP2 cleavage in HEPG2 cells was measured in the presence of compounds disclosed in Table 1. HepG2 cells were seeded at 500,000 cells per well in 6-well plates in DMEM supplemented with 10% FBS. After 2 days, cells were treated with compounds (20 μM) for 1 day in DMEM without FBS. Western blots were normalized with respect to actin.
The results are shown in Table 3 as percent inhibition@20 μM, and in Table 4 as percent inhibition@5 μM.

[2] = HepG2 cell viability by MTS; assay type: cell-based; conditions: human, HepG2 cells, 3 days, DMEM without FBS, MTS, read-out: Average Viability (% Inhibition, n = 3)
Procedure: For viability measurements, HepG2 cells were seeded at 5,000 cells per well in 96-well plates in DMEM supplemented with 10% FBS. After 1 day in culture, cells were treated with compounds (20 μM & 5 μM) for 3 days in DMEM without FBS. Viability was measured by MTS. Treatment with compounds (20 μM & 5 μM) was carried out in medium without FBS, and viability was measured by MTS. […]

[3] = PK parameters for representative compounds (i.v. and p.o.); conditions: in vivo; for half-life: read-out: Terminal t1/2 (converted)
Description: Standard PK parameters were collected in Mouse and Dog for Compound #37 in mouse (FIG. 4A) and dog (FIG. 4B).

Compound | inhibition at 5 µM [1] | cytotoxicity at 3 days, 5 μM [2] | also measured
O=S(=O)(Nc1ccc(-c2csc(-c3ccnc(Cc4ccccc4)c3)n2)c(Cl)c1)C(F)(F)F [Compound 60, N-{4-[2-(2-benzylpyridin-4-yl)-1,3-thiazol-4-yl]-3-chlorophenyl}-1,1,1-trifluoromethanesulfonamide] | – | – | inhibition at 20 µM ([1]; 24 h, 20 μM, 1 day, DMEM without FBS): 99%; cytotoxicity at 3 days, 20 μM ([2]; 20 μM): 100%; AUC(0-t) ([3]; iv, i.v. @ 2 mg/kg): 12.6 µM·h; Cmax ([3]; iv, i.v. @ 2 mg/kg): 3.38 µM; Vd ([3]; iv, i.v. @ 2 mg/kg): 1.28 L/kg; clearance ([3]; iv, i.v. @ 2 mg/kg): 4.8 mL/min/kg; half-life ([3]; iv, i.v. @ 2 mg/kg): 3.08 h; AUC(0-t) ([3]; po, p.o. @ 10 mg/kg): 57.1 µM·h; Cmax ([3]; po, p.o. @ 10 mg/kg): 6.58 µM; Tmax ([3]; po, p.o. @ 10 mg/kg): 4 h; bioavailability ([3]; po, p.o. @ 10 mg/kg): 90.2%; half-life ([3]; po, p.o. @ 10 mg/kg): > 8 h
O=S(=O)(Nc1ccc(-c2csc(-c3ccc4cc[nH]c4c3)n2)c(Cl)c1)C(F)(F)F [Compound 72, N-{3-chloro-4-[2-(1H-indol-6-yl)-1,3-thiazol-4-yl]phenyl}-1,1,1-trifluoromethanesulfonamide] | 61% | 94% | –
O=S(=O)(Nc1ccc(-c2csc(-c3ccc(C(F)(F)F)c(OCc4ccccc4)c3)n2)c(Cl)c1)C(F)(F)F [Compound 73, N-(4-{2-[3-(benzyloxy)-4-(trifluoromethyl)phenyl]-1,3-thiazol-4-yl}-3-chlorophenyl)-1,1,1-trifluoromethanesulfonamide] | 64% | 99% | –
O=S(=O)(Nc1ccc(-c2csc(-c3ccccc3-c3ccccc3)n2)c(Cl)c1)C(F)(F)F [Compound 74, N-{3-chloro-4-[2-(2-phenylphenyl)-1,3-thiazol-4-yl]phenyl}-1,1,1-trifluoromethanesulfonamide] | 76% | 97% | –
O=S(=O)(Nc1ccc(-c2csc(-c3cncc4ccccc34)n2)c(Cl)c1)C(F)(F)F [Compound 75, N-{3-chloro-4-[2-(isoquinolin-4-yl)-1,3-thiazol-4-yl]phenyl}-1,1,1-trifluoromethanesulfonamide] | 55% | 88% | –
CN1CCN(c2cc(-c3nc(-c4ccc(NS(=O)(=O)C(F)(F)F)cc4Cl)cs3)ccn2)CC1 [Compound 76, N-(3-chloro-4-{2-[2-(4-methylpiperazin-1-yl)pyridin-4-yl]-1,3-thiazol-4-yl}phenyl)-1,1,1-trifluoromethanesulfonamide] | 7% | 3% | –
Cc1noc(C)c1-c1nc(-c2ccc(NS(=O)(=O)C(F)(F)F)cc2Cl)cs1 [Compound 77, N-{3-chloro-4-[2-(dimethyl-1,2-oxazol-4-yl)-1,3-thiazol-4-yl]phenyl}-1,1,1-trifluoromethanesulfonamide] | 56% | 41% | –
Cc1ccc(S(=O)(=O)Nc2cccc(-c3nc(-c4ccc(NS(=O)(=O)C(F)(F)F)cc4Cl)cs3)c2)cc1 [Compound 78, N-{3-[4-(2-chloro-4-trifluoromethanesulfonamidophenyl)-1,3-thiazol-2-yl]phenyl}-4-methylbenzene-1-sulfonamide] | 38% | 87% | –
COc1ccc(-c2nc(-c3ccc(NS(=O)(=O)C(F)(F)F)cc3Cl)cs2)cc1OC [Compound 79, N-{3-chloro-4-[2-(3,4-dimethoxyphenyl)-1,3-thiazol-4-yl]phenyl}-1,1,1-trifluoromethanesulfonamide] | 65% | 74% | –
O=S(=O)(Nc1ccc(-c2csc(-c3ccc(F)cc3C(F)(F)F)n2)c(Cl)c1)C(F)(F)F [Compound 81, N-[3-chloro-4-[2-[4-fluoro-2-(trifluoromethyl)phenyl]thiazol-4-yl]phenyl]-1,1,1-trifluoro-methanesulfonamide] | 44% | 88% | –
O=S(=O)(Nc1ccc(-c2csc(-c3cccc(CO)c3)n2)c(Cl)c1)C(F)(F)F [Compound 83, N-(3-chloro-4-{2-[3-(hydroxymethyl)phenyl]-1,3-thiazol-4-yl}phenyl)-1,1,1-trifluoromethanesulfonamide] | 2% | 0% | –
O=S(=O)(Nc1ccc(-c2csc(-c3ccccc3CO)n2)c(Cl)c1)C(F)(F)F [Compound 84, N-(3-chloro-4-{2-[2-(hydroxymethyl)phenyl]-1,3-thiazol-4-yl}phenyl)-1,1,1-trifluoromethanesulfonamide] | 20% | 18% | –
Cc1cnccc1-c1nc(-c2ccc(NS(=O)(=O)C(F)(F)F)cc2Cl)cs1 [Compound 86, N-{3-chloro-4-[2-(3-methylpyridin-4-yl)-1,3-thiazol-4-yl]phenyl}-1,1,1-trifluoromethanesulfonamide] | 54% | 27% | –
O=S(=O)(Nc1ccc(-c2csc(-c3ccnc4[nH]ccc34)n2)c(Cl)c1)C(F)(F)F [Compound 87, N-[3-chloro-4-(2-{1H-pyrrolo[2,3-b]pyridin-4-yl}-1,3-thiazol-4-yl)phenyl]-1,1,1-trifluoromethanesulfonamide] | 50% | 9% | –
O=S(=O)(Nc1ccc(-c2csc(-c3csc4ccccc34)n2)c(Cl)c1)C(F)(F)F [Compound 90, N-{4-[2-(1-benzothiophen-3-yl)-1,3-thiazol-4-yl]-3-chlorophenyl}-1,1,1-trifluoromethanesulfonamide] | 64% | 99% | –
O=S(=O)(Nc1ccc(-c2csc(-c3ccc(F)cc3CN3CCCC3)n2)c(Cl)c1)C(F)(F)F [Compound 91, N-(3-chloro-4-{2-[4-fluoro-2-(pyrrolidin-1-ylmethyl)phenyl]-1,3-thiazol-4-yl}phenyl)-1,1,1-trifluoromethanesulfonamide] | 16% | 4% | –
O=S(=O)(Nc1ccc(-c2csc(-c3ccnc(NC4CCCC4)c3)n2)c(Cl)c1)C(F)(F)F [Compound 92, N-(3-chloro-4-{2-[2-(cyclopentylamino)pyridin-4-yl]-1,3-thiazol-4-yl}phenyl)-1,1,1-trifluoromethanesulfonamide] | 59% | 94% | –
O=S(=O)(Nc1ccc(-c2csc(-c3c[nH]c4ccccc34)n2)c(Cl)c1)C(F)(F)F [Compound 93, N-{3-chloro-4-[2-(1H-indol-3-yl)-1,3-thiazol-4-yl]phenyl}-1,1,1-trifluoromethanesulfonamide] | 28% | 82% | –
O=S(=O)(Nc1ccc(-c2csc(-c3ccnc4ccccc34)n2)c(Cl)c1)C(F)(F)F [Compound 94, N-[3-chloro-4-[2-(4-quinolyl)thiazol-4-yl]phenyl]-1,1,1-trifluoro-methanesulfonamide] | 35% | 84% | –
O=S(=O)(Nc1ccc(-c2csc(-c3ccnc(Cl)c3)n2)c(Cl)c1)C(F)(F)F [Compound 95, N-(3-chloro-4-(2-(2-chloropyridin-4-yl)thiazol-4-yl)phenyl)-1,1,1-trifluoromethanesulfonamide] | 39% | 86% | –
